According to patent US10568892B2, “Cycloartane tetracyclic triterpenoid compound, preparation method therefor and use thereof” (Hefei Cosource Pharmaceuticals Inc., priority 2016, dated 2020):

Tested on: ventricular papillary muscle cell of guinea pig
Test: Action potential of the ventricular papillary muscle cell of guinea pig (electrophysiological recording)
Format: cell-based
Conditions: screening stage; for percent change in action potential duration at 0.0005 µM / percent change in action potential duration at 0.005 µM / percent change in action potential duration at 0.05 µM: Cavia porcellus, 20 min, read-out: APD, Change rate (%); for APD, Post-administration: about 20 min perfusion; for Effect on the APD value of the action potential of the papillary muscle (in words): Table 3 summary
Protocol: Method: One guinea pig was taken to violently hit the back of the brain such that it fainted. The common carotid artery was cut off for bleeding to kill the guinea pig. The chest was incised to expose the heart, and the ventricle was cut open along the interventricular septum to expose the lumen of the left ventricle. The papillary muscles were quickly taken out and placed in a Kreb's solution saturated with O2 (mixed gas of 95% O2 and 5% CO2) at 0° C. After the microscopic dressing, the papillary muscle specimen was fixed with a stainless steel needle on the silicone rubber at the bottom of the perfusion bath, and perfused with the oxygen-saturated Kreb's solution. The relevant parameters for perfusion: the temperature was 37±0.5° C., and the flow rate was 4 mL/min.
Cellular action potentials were recorded using a conventional electrophysiological method. The glass electrode filled with 3M KCl saturated solution and having a tip resistance of 15-30 MΩ was fixed on the microelectrode manipulator MP-2. The glass electrode was gently inserted into the superficial layer of the prepared papillary muscle specimen using a microelectrode pusher. The electrode was adjusted to provide the predetermined bioelectrical stimulation with the triple-channel SEN-7203 electronic stimulator and SS-202 J isolator. The bioelectrical signal was amplified by the MEZ-8301 amplifier and then input to the computerized electrophysiological recording and analysis system Powerlab 4/25. Subsequently, the relevant parameters of the action potential for the ventricular papillary muscle were analyzed through the analysis system. The relevant parameters for electrical stimulation: 30 ms latency, 7 ms wavewidth, 1 Hz frequency, 52.1 my stimulation intensity.
In the compound screening test stage, after the ventricular papillary muscle specimen of the guinea pig was fixed, it was first perfused with a normal Kreb's solution for about 85 minutes for stabilization, and the relevant parameters of the cellular action potential before administration were recorded at about 80 min after the start of perfusion. The three-limb tube was used to convert the perfusates containing the title compounds. The title compounds were continuously perfused for about 25 min successively with low (0.0005 μM), medium (0.005 μM), and high (0.05 μM) concentrations, respectively. At about 20 min after the start of drug perfusions at different concentrations, the relevant parameters of the action potentials for the ventricular papillary muscle of guinea pig were observed and recorded, respectively. The normal Kreb's solution was used to perfuse and elute for about 25 min during the intervals between drug perfusions at different concentrations.
The experiment was divided into the following five groups with 6 animals in each group: a vehicle control group, a 369 low dose (0.0005 μM) group, a 369 medium dose (0.005 μM) group, a 369 high dose (0.05 μM) group, and an amiodarone (10 μM) positive control group. After the ventricular papillary muscle specimen of the guinea pig was fixed, it was first perfused with a normal Kreb's solution for about 85 minutes for stabilization, and the relevant parameters of the cellular action potential before administration were recorded at about 80 min after the start of perfusion. According to groups, the three-limb tube was configured to convert the perfusates containing the vehicle, positive control, or Compound 369 at the corresponding concentrations to continuously perfuse for about 25 min. At about 20 min after the start of the perfusions, the relevant parameters of the action potentials for the ventricular papillary muscle of guinea pig were observed and recorded.

| SMILES | percent change in action potential duration at 0.0005 µM (0.0005 μM) [%] | percent change in action potential duration at 0.005 µM (0.005 μM) [%] | percent change in action potential duration at 0.05 µM (0.05 μM) [%] | APD, Post-administration (0.0005 μM) | APD, Post-administration (0.005 μM) | APD, Post-administration (0.05 μM) | Effect on the APD value of the action potential of the papillary muscle (in words) |
| --- | --- | --- | --- | --- | --- | --- | --- |
| CN[C@H]1CC[C@]23C[C@]24CC[C@]2(C)C(/C(C)=N\OC)=CC[C@@]2(C)[C@@H]4CC[C@H]3C1(C)C [Compound 398, (3β,5α)-4,4,14-trimethyl-3-(methylamino)-20-methoxyimino-9,19-cyclopregnan-16-ene] | -0.86 | 6.63 | 9.46 | 0.0695 | 0.771 | 0.764 |  |
| CN(C)[C@H]1CC[C@]23C[C@]24CC[C@]2(C)C(C(=O)CO)=CC[C@@]2(C)[C@@H]4CC[C@H]3C1(C)C [Compound 399a, (3β,5α)-4,4,14-trimethyl-21-hydroxy-3-(dimethylamino)-9,19-cyclopregnan-16-en-20-one] | 24.4 | 28.5 | 38.4 | 0.0960 | 0.1010 | 0.1103 | a certain degree of prolonged effects |
| CC(=O)C1=CC[C@@]2(C)[C@@H]3CC[C@H]4C(C)(C)[C@@H](N(C)C5CC5)CC[C@@]45C[C@@]35CC[C@]12C [Compound 409, (3β,5α)-4,4,14-trimethyl-3-(methylcyclopropylamino)-9,19-cyclopregnan-16-en-20-one] | 1.84 | 3.25 | 6.07 | 0.0773 | 0.0762 | 0.0786 |  |
| CN[C@H]1CC[C@]23C[C@]24CC[C@]2(C)C(C(=O)COC(C)=O)=CC[C@@]2(C)[C@@H]4CC[C@H]3C1(C)C [Compound 427, (3β,5α)-4,4,14-trimethyl-21-acetoxy-3-(methylamino)-9,19-cyclopregnan-16-en-20-one] | 18.2 | 20.6 | 42.9 | 0.0903 | 0.0929 | 0.1073 | a certain degree of prolonged effects |
| CN[C@H]1CC[C@]23C[C@]24CC[C@]2(C)C(C(=O)COC(=O)c5ccccc5)=CC[C@@]2(C)[C@@H]4CC[C@H]3C1(C)C [Compound 489, (3β,5α)-4,4,14-trimethyl-3-(methylamino)-21-(benzoyloxy)-9,19-cyclopregnan-16-en-20-one] | -2.09 | 1.85 | 9.63 | 0.0750 | 0.0771 | 0.820 |  |
| CN[C@H]1CC[C@]23C[C@]24CC[C@]2(C)C(C(=O)COC(=O)CCC(=O)O)=CC[C@@]2(C)[C@@H]4CC[C@H]3C1(C)C.Cl [Compound 522, (3β,5α)-4,4,14-trimethyl-3-(methylamino)-21-(3-carboxypropionyloxy)-9,19-cyclopregnan-16-en-20-one hydrochloride] | 2.87 | 27.2 | 36 | 0.0824 | 0.0996 | 0.1102 | a certain degree of prolonged effects |
| CN[C@H]1CC[C@]23C[C@]24CC[C@]2(C)C(C(=O)COC(=O)c5ccccc5C(=O)O)=CC[C@@]2(C)[C@@H]4CC[C@H]3C1(C)C.Cl [Compound 570, (3β,5α)-4,4,14-trimethyl-3-(methylamino)-21-(2-carboxybenzoyloxy)-9,19-cyclopregnan-16-en-20-one hydrochloride] | 12.3 | 21.8 | 30.5 | 0.0813 | 0.0850 | 0.928 | a certain degree of prolonged effects |
